Six molecules from ChEMBL document CHEMBL1201862, “PubChem BioAssay data set” (2004) can be followed below.

Assay [1] relates to HEK293. The assay is described as follows: cells. The assay is classed as functional, cell-based. Conditions: Homo sapiens.
Assay [2] can be described thus: reduction of Shn3 3'UTR-driven luciferase in osteoblasts – cell-based, Clone20 osteoblasts, firefly luciferase, cherry-picked, dose response (AID 624132).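 Note: firefly luciferase luminescence from reporter carrying the Shn3 3'UTR in osteoblasts.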 It is filed as functional.
The nature of assay [3]: loss of viability in HepG2 cells – cell-based, CellTiter-Glo, cherry-picked, cytotoxicity control for Shn3 inhibitor project, dose response (AID 624134). It is filed as functional. In general terms: Cellular ATP, detected with luciferase, serves as a proxy for viable cell number.
Assay [4] relates to HEK293. Briefly: NOD2 signaling inhibitors in MDP-stimulated cells, cell-based, uHTS, luminescence (AID 2001). It is filed as functional. The settings on record: Homo sapiens.
In another assay the target is Tumor necrosis factor (Homo sapiens, UniProt P01375). Briefly: analog potency on TNFa NF-kB signaling – cell-based, revised, SAR follow-up (AID 2337). It is filed as functional.
Chain of Tumor necrosis factor (P01375 whole entry, the tested form may be a part): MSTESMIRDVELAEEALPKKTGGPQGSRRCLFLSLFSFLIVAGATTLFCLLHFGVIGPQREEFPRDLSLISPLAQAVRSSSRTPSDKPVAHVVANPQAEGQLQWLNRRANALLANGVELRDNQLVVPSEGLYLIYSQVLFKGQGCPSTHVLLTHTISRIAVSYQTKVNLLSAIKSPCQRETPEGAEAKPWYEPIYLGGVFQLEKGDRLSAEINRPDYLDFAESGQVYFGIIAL
In assay [5] the target is T1, Nucleotide-binding oligomerization domain-containing protein 1 (Homo sapiens, UniProt Q9Y239).
T1 sequence (Q9Y239 whole entry): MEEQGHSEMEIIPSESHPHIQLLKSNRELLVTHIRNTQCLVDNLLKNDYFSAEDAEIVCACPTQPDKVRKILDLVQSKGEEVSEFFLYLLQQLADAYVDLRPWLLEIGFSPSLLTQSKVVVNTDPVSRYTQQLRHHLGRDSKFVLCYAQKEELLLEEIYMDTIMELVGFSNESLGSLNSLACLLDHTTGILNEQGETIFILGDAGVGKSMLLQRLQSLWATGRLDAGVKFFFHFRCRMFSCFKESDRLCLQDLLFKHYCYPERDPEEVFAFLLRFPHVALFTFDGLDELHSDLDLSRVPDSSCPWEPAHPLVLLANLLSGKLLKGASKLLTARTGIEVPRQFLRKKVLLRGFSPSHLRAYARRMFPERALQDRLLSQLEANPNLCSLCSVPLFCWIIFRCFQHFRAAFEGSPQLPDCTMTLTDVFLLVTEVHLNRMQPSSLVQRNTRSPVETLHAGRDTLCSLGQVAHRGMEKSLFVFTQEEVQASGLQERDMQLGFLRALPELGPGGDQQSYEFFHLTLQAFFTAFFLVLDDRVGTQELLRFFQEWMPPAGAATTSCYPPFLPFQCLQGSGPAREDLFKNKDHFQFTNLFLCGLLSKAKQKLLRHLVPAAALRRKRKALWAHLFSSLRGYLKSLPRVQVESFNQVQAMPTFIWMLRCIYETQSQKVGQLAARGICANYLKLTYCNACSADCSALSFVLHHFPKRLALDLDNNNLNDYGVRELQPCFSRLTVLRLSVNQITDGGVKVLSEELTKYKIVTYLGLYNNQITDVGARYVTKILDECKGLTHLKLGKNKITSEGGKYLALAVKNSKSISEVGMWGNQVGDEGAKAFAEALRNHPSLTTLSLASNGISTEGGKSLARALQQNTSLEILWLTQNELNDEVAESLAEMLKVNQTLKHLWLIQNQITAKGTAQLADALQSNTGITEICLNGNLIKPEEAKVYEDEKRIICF
Briefly: blockers of NOD1 pathway activity – revised, SAR follow-up (AID 2333). It is filed as functional.

A short description of assay [6]: Shn3 3'UTR reporter signal decrease – cell-based, Clone20 osteoblasts, firefly luciferase, cherry-pick, set 2, Schnurri-3 inhibitor project, dose response (AID 720490).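 Note: actives lower the luminescence signal as inhibitors.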 It is filed as functional.
Assay [7] is described as follows: non-specific 3'UTR reporter inhibition in Clone20-Shn3RL – cell-based, Renilla luciferase, cherry-picked, counter-screen for Shn3 inhibitor project, dose response (AID 624133). It is filed as functional.
For assay [8], the system named is HEK293. The assay is described as follows: cells. The settings on record: Homo sapiens.
Assay [9] concerns HEK293. Briefly: inhibition of NOD1-driven NF-kB reporter – cell-based, luminescence, uHTS, primary screen (AID 1578). It is filed as functional. The settings on record: Homo sapiens.
Assay [10] relates to HEK293. The assay is described as follows: cells. It is filed as functional, cell-based. The settings on record: Homo sapiens. This is another data set of the same source.
Assay [11] in a line: cytotoxicity toward HCT116 cells – cell-based, CellTiter-Glo luminescence, IC50, dose response (AID 1117332). The assay is classed as functional. Conditions: HCT-116.
Assay [12] in a line: Reduced DLD-1 viability, concentration-response, CellTiter-Glo luminescence (AID 1117352). The assay is classed as functional.
A short description of assay [13]: HCT116 cell viability decrease, GSK3B pretreatment – CellTiter-Glo, IC50, dose response (AID 1117339). The assay is classed as functional. Conditions: HCT-116.
Assay [14] in a line: SNU-C1 cell viability reduction, dose response, CellTiter-Glo luminescence (AID 1117323). It is filed as functional, cell-based.
A short description of assay [15]: rise of 4N DNA cells, HeLa – IC50, dose response (AID 1117351). The assay is classed as functional, cell-based.
Assay [16] in a line: CellTiter-Glo luminescence survival assay, SW480 colon tumor line, concentration-response curve, half-maximal inhibitory concentration (AID 1117338). It is filed as functional.
Assay [17] can be described thus: cytotoxicity toward Colo320 cells – cell-based, CellTiter-Glo luminescence, IC50, dose response (AID 1117334). It is filed as functional. Conditions: COLO 320.
Assay [18] is described as follows: cytotoxicity toward HT-29 cells – cell-based, CellTiter-Glo luminescence, IC50, dose response (AID 1117330). It is filed as functional.
The nature of assay [19]: RKO cell viability reduction, dose response, CellTiter-Glo luminescence (AID 1117322). It is filed as functional.
A short description of assay [20]: rise of 2N DNA cells, HeLa – IC50, dose response (AID 1117349). The assay is classed as functional, cell-based.
The target of assay [21] is T2, Metabotropic glutamate receptor 7 (Homo sapiens, UniProt Q14831). The assay is described as follows: Fold shift mGlu7 using calcium mobilization. It is filed as functional. For orientation: Calcium flux is commonly read through the fluorescence of an indicator in the cells.
T2 sequence (Q14831 whole entry): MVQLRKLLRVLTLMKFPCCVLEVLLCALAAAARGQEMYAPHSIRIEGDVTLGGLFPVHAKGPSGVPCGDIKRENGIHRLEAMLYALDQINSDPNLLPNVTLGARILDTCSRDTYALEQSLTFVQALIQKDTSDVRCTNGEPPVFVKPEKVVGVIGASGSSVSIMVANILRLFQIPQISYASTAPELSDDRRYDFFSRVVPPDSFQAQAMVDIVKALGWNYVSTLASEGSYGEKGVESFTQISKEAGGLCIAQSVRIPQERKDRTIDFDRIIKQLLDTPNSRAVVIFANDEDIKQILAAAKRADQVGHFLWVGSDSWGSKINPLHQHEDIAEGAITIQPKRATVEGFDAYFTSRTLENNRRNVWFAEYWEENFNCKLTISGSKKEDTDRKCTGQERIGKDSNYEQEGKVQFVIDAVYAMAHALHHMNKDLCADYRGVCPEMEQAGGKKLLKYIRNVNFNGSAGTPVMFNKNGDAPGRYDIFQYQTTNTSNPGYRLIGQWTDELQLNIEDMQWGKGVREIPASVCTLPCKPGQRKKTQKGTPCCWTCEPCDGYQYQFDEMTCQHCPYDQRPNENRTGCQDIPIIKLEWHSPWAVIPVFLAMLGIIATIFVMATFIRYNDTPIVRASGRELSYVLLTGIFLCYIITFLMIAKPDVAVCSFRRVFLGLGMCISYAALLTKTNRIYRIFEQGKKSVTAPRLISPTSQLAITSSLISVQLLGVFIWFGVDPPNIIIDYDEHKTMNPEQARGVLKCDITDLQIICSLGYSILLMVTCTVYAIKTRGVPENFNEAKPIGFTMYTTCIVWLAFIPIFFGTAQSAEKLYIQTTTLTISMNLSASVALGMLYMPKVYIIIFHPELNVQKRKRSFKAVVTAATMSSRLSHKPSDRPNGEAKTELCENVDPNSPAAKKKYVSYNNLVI
The target in assay [22] is T3, Metabotropic glutamate receptor 4 (Homo sapiens, UniProt Q14833). The assay is described as follows: agonist response potentiation at mGlu4 receptor – cell-based, GIRK thallium flux, mechanism study for group III mGlu PAM project, late-stage follow-up (AID 743466). It is filed as functional.
T3 sequence (Q14833 whole entry): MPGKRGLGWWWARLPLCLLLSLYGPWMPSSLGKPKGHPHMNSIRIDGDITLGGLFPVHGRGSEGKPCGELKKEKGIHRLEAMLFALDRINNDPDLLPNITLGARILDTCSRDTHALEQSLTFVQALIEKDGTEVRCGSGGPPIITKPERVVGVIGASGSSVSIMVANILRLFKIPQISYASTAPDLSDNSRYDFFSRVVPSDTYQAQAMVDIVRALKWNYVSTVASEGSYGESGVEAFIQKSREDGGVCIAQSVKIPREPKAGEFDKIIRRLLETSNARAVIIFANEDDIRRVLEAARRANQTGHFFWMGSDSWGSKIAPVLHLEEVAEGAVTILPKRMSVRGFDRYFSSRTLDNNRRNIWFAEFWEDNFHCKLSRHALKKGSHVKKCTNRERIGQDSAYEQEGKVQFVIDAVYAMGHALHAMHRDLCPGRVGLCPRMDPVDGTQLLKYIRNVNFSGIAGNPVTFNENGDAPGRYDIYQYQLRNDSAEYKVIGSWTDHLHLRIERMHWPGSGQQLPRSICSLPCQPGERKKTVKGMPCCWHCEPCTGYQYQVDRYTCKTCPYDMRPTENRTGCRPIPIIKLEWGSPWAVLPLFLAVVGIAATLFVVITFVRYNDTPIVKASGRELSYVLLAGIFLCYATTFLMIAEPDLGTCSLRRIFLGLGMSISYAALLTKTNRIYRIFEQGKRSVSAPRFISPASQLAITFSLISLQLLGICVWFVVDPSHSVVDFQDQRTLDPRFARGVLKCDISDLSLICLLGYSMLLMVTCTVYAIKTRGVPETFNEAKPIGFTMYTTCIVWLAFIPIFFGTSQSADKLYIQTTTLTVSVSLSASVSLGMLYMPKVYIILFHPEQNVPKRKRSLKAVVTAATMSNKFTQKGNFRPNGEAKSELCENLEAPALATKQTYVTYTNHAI
Assay [23] deals with Metabotropic glutamate receptor 5 (Homo sapiens, UniProt P41594). The assay is described as follows: off-target activity check on mGlu5 receptor – cell-based, calcium fluorescence, glutamate curve fold shift, selectivity assay for mGlu8/mGlu7 PAM project, profiling panel (AID 743419). The assay is classed as functional.
For assay [24], the target named is Metabotropic glutamate receptor 8 (Homo sapiens, UniProt O00222). The assay is described as follows: Fold shift mGlu8 using GIRK assay. The assay is classed as functional.
Chain of Metabotropic glutamate receptor 8 (O00222 whole entry): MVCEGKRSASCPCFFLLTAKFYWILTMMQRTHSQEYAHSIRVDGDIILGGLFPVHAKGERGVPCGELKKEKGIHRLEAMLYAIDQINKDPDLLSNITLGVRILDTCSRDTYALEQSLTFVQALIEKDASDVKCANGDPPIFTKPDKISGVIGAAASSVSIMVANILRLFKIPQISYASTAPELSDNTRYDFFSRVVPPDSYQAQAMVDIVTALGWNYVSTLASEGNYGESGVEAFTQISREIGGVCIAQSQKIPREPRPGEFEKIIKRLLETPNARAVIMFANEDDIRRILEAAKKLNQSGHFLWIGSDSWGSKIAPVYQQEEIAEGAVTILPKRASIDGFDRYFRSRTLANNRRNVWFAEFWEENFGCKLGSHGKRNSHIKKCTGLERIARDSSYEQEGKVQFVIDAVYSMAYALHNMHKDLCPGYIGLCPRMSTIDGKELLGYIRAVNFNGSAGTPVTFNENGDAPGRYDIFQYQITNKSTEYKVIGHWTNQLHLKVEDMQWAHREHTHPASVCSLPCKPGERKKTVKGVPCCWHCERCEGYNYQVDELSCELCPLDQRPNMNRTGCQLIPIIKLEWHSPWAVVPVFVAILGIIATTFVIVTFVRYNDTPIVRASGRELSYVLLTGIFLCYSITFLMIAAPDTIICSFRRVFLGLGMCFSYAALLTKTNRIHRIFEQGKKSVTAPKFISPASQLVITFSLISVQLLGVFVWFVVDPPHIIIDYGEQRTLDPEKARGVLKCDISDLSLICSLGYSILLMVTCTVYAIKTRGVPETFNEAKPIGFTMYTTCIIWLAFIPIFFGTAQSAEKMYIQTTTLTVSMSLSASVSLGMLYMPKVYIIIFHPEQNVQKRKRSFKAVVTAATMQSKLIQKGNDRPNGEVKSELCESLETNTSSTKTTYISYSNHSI
In assay [25] the target is Metabotropic glutamate receptor 3 (Homo sapiens, UniProt Q14832). Briefly: Selectivity Studies of mglur8 probe at mglur3. The assay is classed as functional.
Chain of Metabotropic glutamate receptor 3 (Q14832 whole entry): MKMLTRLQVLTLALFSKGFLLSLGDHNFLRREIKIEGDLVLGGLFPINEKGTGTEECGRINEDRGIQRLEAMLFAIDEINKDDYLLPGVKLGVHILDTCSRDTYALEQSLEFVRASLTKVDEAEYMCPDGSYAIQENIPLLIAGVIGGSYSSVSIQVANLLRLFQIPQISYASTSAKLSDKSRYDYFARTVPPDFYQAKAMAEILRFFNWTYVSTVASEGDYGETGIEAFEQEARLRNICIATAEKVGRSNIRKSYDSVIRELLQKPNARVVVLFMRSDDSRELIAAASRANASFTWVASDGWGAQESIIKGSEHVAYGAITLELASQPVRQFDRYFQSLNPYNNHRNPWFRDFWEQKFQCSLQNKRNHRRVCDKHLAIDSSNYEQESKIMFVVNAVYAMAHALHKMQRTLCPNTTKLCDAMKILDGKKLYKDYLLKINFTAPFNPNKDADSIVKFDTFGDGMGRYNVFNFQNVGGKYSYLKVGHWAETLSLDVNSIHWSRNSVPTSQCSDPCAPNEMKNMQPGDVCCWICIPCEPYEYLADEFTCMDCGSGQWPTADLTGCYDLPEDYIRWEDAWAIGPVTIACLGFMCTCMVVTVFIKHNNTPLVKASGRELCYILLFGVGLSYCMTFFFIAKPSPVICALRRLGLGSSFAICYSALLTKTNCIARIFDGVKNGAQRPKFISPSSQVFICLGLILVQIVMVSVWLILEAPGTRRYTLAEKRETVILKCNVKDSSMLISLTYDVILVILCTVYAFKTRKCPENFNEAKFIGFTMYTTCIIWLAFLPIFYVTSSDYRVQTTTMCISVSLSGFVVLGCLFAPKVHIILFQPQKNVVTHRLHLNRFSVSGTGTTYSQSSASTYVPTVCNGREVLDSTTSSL
Assay [26] concerns the target Metabotropic glutamate receptor 2 (Homo sapiens, UniProt Q14416). Briefly: off-target activity check on mGlu2 receptor – cell-based, GIRK thallium flux, agonist curve fold shift, selectivity assay for mGlu8/mGlu7 PAM project, profiling panel (AID 743433). It is filed as functional.
The target in assay [27] is Metabotropic glutamate receptor 6 (Homo sapiens, UniProt O15303). The assay is described as follows: off-target activity check on mGlu6 receptor – cell-based, GIRK thallium flux, agonist curve fold shift, selectivity assay for mGlu8/mGlu7 PAM project, profiling panel (AID 743421). It is filed as functional.
Assay [28] has as its target T3, Metabotropic glutamate receptor 4. The assay is described as follows: Fold shift mGlu4, mGlu7, mGlu8 using calcium mobilization. It is filed as functional.
Assay [29] addresses T2, Metabotropic glutamate receptor 7. Briefly: glutamate curve shift by mGlu7 potentiators, cell-based, rat, GIRK per title (AID 743386). The assay is classed as functional.
Assay [30] addresses Mitogen-activated protein kinase 10 (Homo sapiens, UniProt P53779). Briefly: Dose response biochemical screening assay for inhibitors of c-Jun N-Terminal Kinase 3 (JNK3). [Related pubchem assays: 746 ].
The nature of assay [31]: PAX8-dependent cell viability loss – plate reader, dry powder, dose response (AID 743049). The assay is classed as functional, cell-based.
A short description of assay [32]: COV434 cell viability loss – plate reader, dry powder, SA7, cytotoxicity control for PAX8 inhibitor project, dose response (AID 743145). The assay is classed as functional, cell-based.
Assay [33] is described as follows: A2780 cell killing – plate reader, dry powder samples, cytotoxicity control, dose response (AID 743046). It is filed as functional, cell-based.
Assay [34] is described as follows: OVCAR-3 cell viability loss – plate reader, dry powder samples, PAX8 inhibitor project, dose response (AID 743044). It is filed as functional, cell-based.
Assay [35] can be described thus: toxicity toward immortalized ovarian surface epithelium – cell-based, plate reader, dry powder samples, cytotoxicity control for PAX8 inhibitor project, dose response (AID 743045). The assay is classed as functional.
Assay [36] in a line: COV362 cell viability loss – plate reader, dry powder, SA12, cytotoxicity control for PAX8 inhibitor project, dose response (AID 743144). The assay is classed as functional, cell-based.
A short description of assay [37]: IGROV1 cell killing – plate reader, dry powder samples, PAX8 inhibitor project, dose response (AID 743043). The assay is classed as functional, cell-based. Conditions: IGROV-1.
Assay [38] can be described thus: OV-90 cell viability loss – plate reader, dry powder, SA8, PAX8 inhibitor project, dose response (AID 743149). It is filed as functional, cell-based.
A short description of assay [39]: inhibitors acting on PAX2 in cells – cell-based, plate reader, dry powder samples, selectivity assay for PAX8 inhibitor project, dose response (AID 743048).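 Note: HEK293 cells carrying a WT1 promoter luciferase reporter driven by expressed Pax2; potency is for inhibition of Pax2 driven reporter signal.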 The assay is classed as functional.
Assay [40] in a line: OVCAR4 cell viability loss – plate reader, dry powder, SA11, cytotoxicity control for PAX8 inhibitor project, dose response (AID 743150). It is filed as functional, cell-based. Conditions: OVCAR-4.
For another assay, the target named is Protein Tat (Human immunodeficiency virus type 1 group M subtype B (isolate HXB2)(HIV-1), UniProt P04608). The assay is classed as functional.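 Note: tat binding to TAR RNA read out by fluorescence polarization.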
Chain of Protein Tat (P04608 whole entry): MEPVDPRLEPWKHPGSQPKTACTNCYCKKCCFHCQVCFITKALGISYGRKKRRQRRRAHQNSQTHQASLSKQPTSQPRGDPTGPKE
Assay [41] is described as follows: viability loss in Vero cells – cytotoxicity control for Vif-APOBEC3G degradation inhibitor project, dose response (AID 1117358). The settings on record: Vero. The assay is classed as functional.

The source made the active and inactive calls. Where only a bound is given, the exact number is not on record here.

Chain of Metabotropic glutamate receptor 2 (Q14416 whole entry): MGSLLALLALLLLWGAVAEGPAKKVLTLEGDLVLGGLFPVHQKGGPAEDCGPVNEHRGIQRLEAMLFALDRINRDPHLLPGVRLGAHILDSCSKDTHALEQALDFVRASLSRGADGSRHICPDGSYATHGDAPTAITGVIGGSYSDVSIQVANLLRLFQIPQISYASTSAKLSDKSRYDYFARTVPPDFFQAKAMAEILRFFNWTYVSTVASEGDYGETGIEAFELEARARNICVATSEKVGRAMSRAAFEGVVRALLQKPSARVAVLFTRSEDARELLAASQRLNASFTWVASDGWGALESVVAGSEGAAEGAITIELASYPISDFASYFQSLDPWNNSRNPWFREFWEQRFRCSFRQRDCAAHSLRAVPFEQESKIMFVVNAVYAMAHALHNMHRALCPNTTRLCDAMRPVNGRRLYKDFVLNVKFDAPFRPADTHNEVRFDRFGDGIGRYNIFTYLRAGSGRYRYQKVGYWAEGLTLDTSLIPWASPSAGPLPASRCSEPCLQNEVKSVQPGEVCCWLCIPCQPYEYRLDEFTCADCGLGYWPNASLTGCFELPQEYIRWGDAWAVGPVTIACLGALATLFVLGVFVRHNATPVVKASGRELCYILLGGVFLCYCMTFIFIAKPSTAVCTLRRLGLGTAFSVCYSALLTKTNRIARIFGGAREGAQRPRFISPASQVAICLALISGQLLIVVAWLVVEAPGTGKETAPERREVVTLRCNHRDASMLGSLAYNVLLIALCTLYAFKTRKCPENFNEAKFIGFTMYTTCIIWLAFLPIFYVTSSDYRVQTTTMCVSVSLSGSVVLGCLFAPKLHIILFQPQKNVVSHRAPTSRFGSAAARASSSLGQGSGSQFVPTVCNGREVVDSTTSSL

The term IC50 denotes the concentration that gives 50% inhibition. Usually AC50 stands for the concentration giving half of the maximal activity seen. A word on the EC50: it is the midpoint of the concentration-response curve. Regarding `CC1Cc2cc(S(=O)(=O)N3CCN(c4ccc(Cl)cc4)CC3)ccc2N1C(=O)C1CC1` (stereo not drawn), the IC50 in the assay with HEK293 [1] was > 20 µM (inactive); in the assay on HEK293 [4] it was 4.43 µM (active); on Tumor necrosis factor it was 9.52 µM (active); in assay [5], 5.6 µM (active); with HEK293 [8], > 20 µM (inactive); with HEK293 [10], 2.22 µM (active). Further, the AC50 was 4.26 µM (active) in [2], 64.6 µM (active) in assay [3], 5 µM (active) in assay [6] and 25.4 µM (active) in assay [7]. Also, the EC50 in the assay on HEK293 [9] was > 20 µM (inactive).
Turning to `Cc1nc2ccc(CN(C)c3ccc(C(=O)N[C@@H](CCC(=O)O)C(=O)O)s3)cc2c(=O)[nH]1`, the IC50 in assay [11] was 0.00424 µM (active); in [12] it was > 20 µM (inactive); in assay [13] it was 0.0023 µM (active); in [14], > 20 µM (inactive); in assay [15] it was > 10 µM (inactive); in [16] it was 0.001 µM (active). Also, the IC50 in assay [17] is > 20 µM (inactive); in [18], > 20 µM (inactive); in assay [19], 0.00288 µM (active); in assay [20] it was > 10 µM (inactive).
As to `COC(=O)c1ccc(-n2c(C)cc(C(=O)CSc3ccc(NC(C)=O)cc3)c2C)cc1`, the EC50 in [21] is 16.2 µM (active); in assay [22], 4.1 µM (inactive); in assay [23], 0.35 µM (inactive); in assay [24], 0.73 µM; in assay [25], 0.18 µM (inactive); in assay [26], 0.37 µM (inactive). Further, the EC50 in assay [27] is 0.39 µM (active); in assay [28], 1.78 µM (active); in [29], 28.4 µM (active).
For `COc1ccc(C(=O)NCc2nc3ccccc3[nH]2)cc1OC`, in [30], the IC50 is listed as 23.2 µM (not active).
For the molecule `COc1ccc(OC)c2sc(N(CCCN(C)C)C(=O)CCS(=O)(=O)c3ccccc3)nc12`, the AC50 in [31] is 13.2 µM (active); in assay [32], 5.66 µM (active); in assay [33] it was 40 µM (active); in [34] it was 7.2 µM (active); in assay [35] it was 14.5 µM (active); in assay [36], 12 µM (active). For the same molecule, the AC50 in assay [37] is 25.5 µM (active); in assay [38], 17.3 µM (active); in [39], 56.3 µM (active); in assay [40], 22.8 µM (active).
In general, CC50 refers to the concentration at which the toxic effect on the cells reaches its halfway point. Consider `CN1CCc2nc3ccc(Cl)cc3c(-c3ccccc3Cl)c2C1`, for which the IC50 on Protein Tat was > 100 µM (active). In addition, in [41], the CC50 is > 40 µM (active).
